Data: US4229479A, “Fluoracylresorcinols as ingredients in pharmaceutical, cosmetic and pesticidal compositions” (Boehringer Ingelheim GmbH, priority 1976, dated 1980)
Like-named read-outs stand apart in the source and are kept apart here.

Assays:
[1] = target: T1, glucose-6-phosphate-dehydrogenase (Saccharomyces cerevisiae, UniProt P11412); experiment: Inhibition of the glucose-6-phosphate-dehydrogenase; format: biochemical; details: 366 nm
T1 construct: purchased Boehringer Mannheim
T1 sequence (P11412 1-505): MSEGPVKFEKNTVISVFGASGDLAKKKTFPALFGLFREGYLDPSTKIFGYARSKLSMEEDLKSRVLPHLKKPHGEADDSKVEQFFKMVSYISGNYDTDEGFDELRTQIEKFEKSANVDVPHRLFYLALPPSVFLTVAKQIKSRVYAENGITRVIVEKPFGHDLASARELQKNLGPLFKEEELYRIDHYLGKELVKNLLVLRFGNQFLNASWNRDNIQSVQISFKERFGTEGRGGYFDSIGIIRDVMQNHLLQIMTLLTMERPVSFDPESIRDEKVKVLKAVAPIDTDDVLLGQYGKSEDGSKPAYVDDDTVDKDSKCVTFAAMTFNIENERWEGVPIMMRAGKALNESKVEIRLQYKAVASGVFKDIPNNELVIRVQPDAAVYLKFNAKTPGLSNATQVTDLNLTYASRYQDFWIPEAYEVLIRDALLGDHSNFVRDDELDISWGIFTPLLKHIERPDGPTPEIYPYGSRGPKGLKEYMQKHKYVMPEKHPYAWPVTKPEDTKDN
Experimental: Measurement of the inhibition of the glucose-6-phosphate-dehydrogenase.
The equilibrium was observed: [drawing 6]
The rate of formation of NADPH is a measure for the enzyme activity; it may be observed by means of the extinction increase at 340,334 or 366 nm per unit of time.
0.025 ml of glucose-6-phosphate-dehydrogenase (Boehringer Mannheim) were filled up to 10 ml of distilled water (solution I). 100 mgm of nicotinamide-adenine-dinucleotide-phosphate were dissolved in 13 ml of distilled water (solution II). 47.2 mgm of glucose-6-phosphate were dissolved in further 10 ml of distilled water (solution III). Simultaneously a buffer solution (solution IV) was prepared as follows:
0.28 gm of triethanolamine-hydrochloride and 1.461 gm of ethylene diaminotetraacetic acid-disodium salt were dissolved in 1 liter of distilled water and adjusted to a pH of 7.6 with sodium hydroxide solution. The substance under test was dissolved in dimethyl formamide or ethanol (solution V). Tested concentrations: 50; 25; 12.5; 6.25; 3.125; 1.56 and 0.78 μg/ml.
0.1 ml of solution I, 0.1 ml of solution II, 2.67 ml of solution IV and 0.03 ml of solution V were mixed and kept at 25° C. for 5 minutes. Then 0.1 ml of solution III was added, mixed and the alteration of extinction was determined spectrophotometrically at 366 nm for 3 minutes.
0.1 ml of solution I, 0.1 ml of solution II, 2.67 ml of solution IV and 0.03 ml of solution V were mixed and kept at 37° C. for 60 minutes. Then 0.1 ml of solution III was added, mixed and the alteration of extinction was measured spectrophotometrically at 366 nm for 3 minutes.
The inhibitory values were calculated from the average values of three measurements (alteration of extinction per minute) compared with controls, which received the pure solvent as the inhibitory solution. Then the ED50 was calculated according to Reed and Muench from the inhibitory values for the various concentrations.

[2] = Acute toxicity, LD50 in the mouse; details: in vivo, ip, death within 14 days
Experimental: The acute toxicity was determined with mice. The LD50, the dose leading to the death of 50% of the animals within 14 days, was calculated.

[3] = Compatibility on the skin under occlusion; format: in vivo; details: cream containing 10% of compound A; over 24 hours under occlusion
HeLa-cell culture = experiment: Inhibition of cell cultures (HeLa); format: cell-based; details: Homo sapiens, 72 h, 37° C., 3 days, read-out: Minimal inhibitory concentration
Experimental: Measurement of the inhibition of cell cultures
HeLa-cell culture was treated with trypsin and adjusted to a cell number of 150,000 cells/ml of fresh medium. The substance was always dissolved in the same quantity of dimethyl sulfoxide and then further diluted with growth medium. 0.1 ml of the substance-dilutions were added to each well of microtiter plates and then 0.2 ml of cell suspension were added (4 wells per dilution). Several growth controls containing 0.1 ml of growth medium instead of 0.1 ml of substance dilution were put up. After careful mixing, the cultures were incubated at 37° C. for 3 days in a 5% carbon dioxide atmosphere. The reading was effected in comparison with these controls. The results were given as the percentage of the deficiency and degeneration compared to the growth control. […] The data are referred to μg of substance per ml of total medium.

humans = details: cited from earlier work
[4] = 25° C., 5 minutes before substrate, read-out: G6PDH-inhibition ED50, Immediate Inhibition (converted)
[5] = 37° C., 60 minutes before substrate, read-out: G6PDH-inhibition ED50, Inhibition of Incubation (converted)

Compound	IC50 [1, 4] [µM]	IC50 [1, 5] [µM]	LD50 at 336 h [2] [mg/kg]	compatibility on the skin [3]	minimal effective concentration (HeLa-cell culture) [µg/mL]	allergies in humans (humans)
CCc1c(O)ccc(C(=O)C(F)(F)F)c1O [C, 3-Ethyl-2,4-dihydroxy-trifluoroacetophenone]	160	85.4				
O=C(c1ccc(O)cc1O)C(F)(F)F [Compound A, 2,4-Dihydroxy-trifluoroacetophenone]	> 243	160	105	tolerated without irritation		
CCc1cc(C(=O)C(F)(F)F)c(O)cc1O [Compound B, 5-Ethyl-2,4-dihydroxy-trifluoroacetophenone]	147	128	88			
COc1ccc(C(=O)C(F)(F)F)c(OC)c1 [D, 2,4-Dimethoxy-trifluoroacetophenone]	> 214	> 214			25	
CCCCCCc1ccc(O)cc1O [hexylresorcinol]						in some cases cause allergies in humans
